# Experimental data published in patent US20260258064A1 (SIRONAX LTD., priority 2023, published 2026).
# Biological target: T1, SARM1 (50-724) (Homo sapiens, UniProt Q6SZW1)
# T1 construct: Purified SARM1 (50-724) with a final concentration of 2 nM was pre-incubated with a test compound
# T1 sequence (Q6SZW1 50-724): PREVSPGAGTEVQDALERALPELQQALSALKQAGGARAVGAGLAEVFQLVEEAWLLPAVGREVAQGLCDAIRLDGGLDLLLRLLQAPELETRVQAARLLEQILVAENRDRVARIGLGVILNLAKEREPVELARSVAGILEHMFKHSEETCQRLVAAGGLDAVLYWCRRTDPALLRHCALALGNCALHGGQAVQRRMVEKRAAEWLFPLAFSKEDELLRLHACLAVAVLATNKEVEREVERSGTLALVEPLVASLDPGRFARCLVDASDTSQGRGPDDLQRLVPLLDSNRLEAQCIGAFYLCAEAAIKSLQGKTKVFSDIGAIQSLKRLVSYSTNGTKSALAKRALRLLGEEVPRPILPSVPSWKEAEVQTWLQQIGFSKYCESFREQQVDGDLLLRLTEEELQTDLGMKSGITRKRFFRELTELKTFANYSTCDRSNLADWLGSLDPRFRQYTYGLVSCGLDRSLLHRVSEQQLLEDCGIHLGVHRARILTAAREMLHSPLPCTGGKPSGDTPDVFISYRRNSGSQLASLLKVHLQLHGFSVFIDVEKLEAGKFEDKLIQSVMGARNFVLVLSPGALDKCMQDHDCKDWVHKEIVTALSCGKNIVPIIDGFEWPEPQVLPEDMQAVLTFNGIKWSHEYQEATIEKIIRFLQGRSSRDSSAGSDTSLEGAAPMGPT
# Experiment: SARM1 (50-724) enzymatic assay (LC-MS/MS)
# Type: biochemical
# Conditions: Purified SARM1 (50-724) 2 nM, NMN as activator, NAD+ as substrate, 1 h at room temperature, read-out: IC50 (SARM1 inhibitory activity)
# How it was run: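 Human SARM1 (50-724), 2 nM, pre-incubated 15 min at room temperature with compound in Dulbecco's PBS. Reaction started with 200 µM NMN (activator) plus […] NAD^+ substrate, run 1 h at room temperature, quenched with 70% acetonitrile. Turnover quantified by LC-MS/MS; IC50 reported.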
row,Structure (SMILES),IC50 [nM]
1,"Cc1ccc2[nH]c(-c3cncn3C3CCCC3)nc2c1 [Compound 3, 2-(1-cyclopentyl-1H-imidazol-5-yl)-6-methyl-1H-benzo[d]Imi-dazole]",> 1000
2,"Fc1cc(C2CC2)cc2nc(-c3nncn3-c3cnccc3C(F)(F)F)[nH]c12 [Compound 270, 5-cyclopropyl-7-fluoro-2-(4-(4-(trifluoromethyl)pyridin-3-yl)-4H-1,2,4-triazol-3-yl)-1H-benzo[d]imidazole]",≤ 100
3,Fc1cc(C23COCC2C3)cc2nc(-c3nncn3-c3cnccc3C(F)(F)F)[nH]c12 (stereo not drawn) [Compound 374],≤ 100
4,"CS(=N)(=O)Cc1nnc(-c2nc3cc(Cl)cc(F)c3[nH]2)n1-c1cccc(F)c1Cl (stereo not drawn) [Compound 192, ((4-(2-chloro-3-fluorophenyl)-5-(5-chloro-7-fluoro-1H-benzo[d]imidazol-2-yl)-4H-1,2,4-triazol-3-yl)methyl)(imino)(methyl)-16-sulfanone]",≤ 100
5,"O=C1CN(c2ccccc2)C(c2nc3cc(C(F)(F)F)ccc3[nH]2)CN1 (stereo not drawn) [Compound 369, 4-phenyl-5-(5-(trifluoromethyl)-1H-benzo[d]imidazol-2-yl)piperazin-2-one]",> 1000
6,"Cc1ccc2[nH]c(-c3ccc(C(N)=O)n3C3CCCC3)nc2c1 [Compound 24, 1-cyclopentyl-5-(5-methyl-1H-1,3-benzodiazol-2-yl)pyrrole-2-carboxamide]",> 1000
7,"Cc1ccc2[nH]c(-n3c(-c4cccc(Cl)c4Cl)n[nH]c3=O)nc2c1 [Compound 31, 5-(2,3-dichlorophenyl)-4-(5-methyl-1H-benzo[d]imidazol-2-yl)-2,4-dihydro-3H-1,2,4-triazol-3-one]",> 1000
8,"Cc1ccc2[nH]c(-c3c(CO)ccn3C3CCCC3)nc2c1 [Compound 17, (1-cyclopentyl-2-(5-methyl-1H-benzo[d]imidazol-2-yl)-1H-pyrrol-3-yl)methanol]",> 1000
9,"CN(CC(F)F)c1cc(F)c2[nH]c(-c3nncn3-c3cnccc3C(F)(F)F)nc2c1 [Compound 318, N-(2,2-difluoroethyl)-7-fluoro-N-methyl-2-(4-(4-(trifluoromethyl)pyridin-3-yl)-4H-1,2,4-triazol-3-yl)-1H-benzo[d]imidazol-5-amine]",≤ 100
10,"Nc1nnc(-c2nc3cc(C(F)(F)F)cc(F)c3[nH]2)n1-c1cnccc1C(F)(F)F [Compound 456, 5-(7-fluoro-5-(trifluoromethyl)-1H-benzo[d]imidazol-2-yl)-4-(4-(trifluoromethyl)pyridin-3-yl)-4H-1,2,4-triazol-3-amine]",≤ 100
11,"FC(F)(F)c1ccc2[nH]c(-c3nncn3-c3cnccc3C(F)(F)F)c(-c3ncccn3)c2c1 [Compound 428, 3-pyrimidin-2-yl-5-(trifluoromethyl)-2-[4-[4-(trifluoromethyl)-3-pyridyl]-1,2,4-triazol-3-yl]-1H-indole]",≤ 100
12,"CS(=O)(=O)Cc1nnc(-c2nc3cc(C4(F)CC4)cc(F)c3[nH]2)n1-c1cccc(F)c1Cl [Compound 203, 2-(4-(2-chloro-3-fluorophenyl)-5-((methylsulfonyl)methyl)-4H-1,2,4-triazol-3-yl)-7-fluoro-5-(1-fluorocyclopropyl)-1H-benzo[d]imidazole]",≤ 100
13,"Fc1cc(C2CC2C(F)F)cc2nc(-c3nncn3-c3cnccc3C(F)(F)F)[nH]c12 (stereo not drawn) [Compound 339, 5-(2-(difluoromethyl)cyclopropyl)-7-fluoro-2-(4-(4-(trifluoromethyl)pyridin-3-yl)-4H-1,2,4-triazol-3-yl)-1H-benzo[d]imidazole]",≤ 100
14,"CC(c1cc(F)c2[nH]c(-c3nncn3-c3cnccc3C(F)(F)F)nc2c1)c1nccs1 (racemic) [Compound 412, 2-(1-(7-fluoro-2-(4-(4-(trifluoromethyl)pyridin-3-yl)-4H-1,2,4-triazol-3-yl)-1H-benzo[d]imidazol-5-yl)ethyl)thiazole]",≤ 100
15,"CS(=O)(=O)Cc1nnc(-c2nc3c(F)c(C(F)(F)F)ccc3[nH]2)n1-c1cccc(F)c1Cl (single isomer, unassigned) [Compound 197, 2-(4-(2-chloro-3-fluorophenyl)-5-((methylsulfonyl)methyl)-4H-1,2,4-triazol-3-yl)-4-fluoro-5-(trifluoromethyl)-1H-benzo[d]imidazole]",≤ 100

# The next lines start with the values.
row,IC50 [nM],Structure (SMILES)
1,> 1000,Cn1cc(-c2nc(Cl)c(Cl)s2)c(-c2nc3cc(C(F)(F)F)ccc3[nH]2)cc1=O [Compound 97]
2,≤ 100,"FC(F)(F)Oc1ccc(OC2COC2)cc1-n1cnnc1-c1nc2cc(C(F)(F)F)ccc2[nH]1 [Compound 271, 2-(4-(5-(oxetan-3-yloxy)-2-(trifluoromethoxy)phenyl)-4H-1,2,4-triazol-3-yl)-5-(trifluoromethyl)-1H-benzo[d]imidazole]"
3,≤ 100,"CC(C)(C)c1ccc2[nH]c(-c3nncn3-c3cnccc3C(F)(F)F)cc2n1 [Compound 348, 5-(tert-butyl)-2-(4-(4-(trifluoromethyl)pyridin-3-yl)-4H-1,2,4-triazol-3-yl)-1H-pyrrolo[3,2-b]pyridine]"
4,100 to 500,FC(F)(F)c1ccc2[nH]c(-c3cncnc3-c3cccc(Cl)c3Cl)nc2c1 [Example 38]
5,≤ 100,"N#CC1(c2ccc3[nH]c(-c4nncn4-c4cccc(F)c4Cl)nc3c2)COC1 [Compound 180, 3-(2-(4-(2-chloro-3-fluorophenyl)-4H-1,2,4-triazol-3-yl)-1H-benzo[d]imidazol-5-yl)oxetane-3-carbonitrile]"
6,≤ 100,FC(F)(F)c1ccc2[nH]c(-c3nnc(COC4COC4)n3-c3cccc(Cl)c3Cl)nc2c1 [Example 124]
7,> 1000,"FC(F)(F)c1ccc2[nH]c(-c3ncncc3-c3cccc(Cl)c3Cl)nc2c1 [Compound 310, 2-(5-(2,3-dichlorophenyl)pyrimidin-4-yl)-5-(trifluoromethyl)-1H-benzo[d]imidazole]"
8,≤ 100,"FC(F)(F)c1ccc2[nH]c(-c3nncn3-c3cc4nccn4cc3C(F)(F)F)nc2c1 [Compound 236, 5-(trifluoromethyl)-2-(4-(6-(trifluoromethyl)imidazo[1,2-a]pyridin-7-yl)-4H-1,2,4-triazol-3-yl)-1H-benzo[d]imidazole]"
9,100 to 500,"CC1(c2ccc3[nH]c(-c4nncn4-c4cccc(F)c4Cl)nc3c2)CS(=O)(=O)C1 [Compound 178, 3-(2-(4-(2-chloro-3-fluorophenyl)-4H-1,2,4-triazol-3-yl)-1H-benzo[d]imidazol-5-yl)-3-methylthietane 1,1-dioxide]"
10,≤ 100,"FC(F)(F)Oc1cn2ccnc2cc1-n1cnnc1-c1nc2cc(C(F)(F)F)ccc2[nH]1 [Compound 232, 2-(4-(6-(trifluoromethoxy)imidazo[1,2-a]pyridin-7-yl)-4H-1,2,4-triazol-3-yl)-5-(trifluoromethyl)-1H-benzo[d]imidazole]"
11,≤ 100,"C#Cc1cc(-n2cnnc2-c2nc3cc(C(F)(F)F)ccc3[nH]2)c(OC(F)(F)F)cn1 [Compound 226, 2-(4-(2-ethynyl-5-(trifluoromethoxy)pyridin-4-yl)-4H-1,2,4-triazol-3-yl)-5-(trifluoromethyl)-1H-benzo[d]imidazole]"
12,≤ 100,COC(C)(C)c1ccc2[nH]c(-c3nncn3-c3cccc(Cl)c3Cl)nc2c1 [Example 110]
13,≤ 100,"FC(F)(F)c1ccncc1-n1cnnc1-c1nc2cc(C3CCCC3)ccc2[nH]1 [Compound 364, 5-cyclopentyl-2-(4-(4-(trifluoromethyl)pyridin-3-yl)-4H-1,2,4-triazol-3-yl)-1H-benzo[d]imidazole]"
14,≤ 100,"CS(=O)(=O)Cc1nnc(-c2nc3cc(C(F)(F)F)ccc3[nH]2)n1-c1cccc(Cl)c1Cl [Example 88, 2-(4-(2,3-dichlorophenyl)-5-((methylsulfonyl)methyl)-4H-1,2,4-triazol-3-yl)-5-(trifluoromethyl)-1H-benzo[d]imidazole]"
15,≤ 100,"FC(F)(F)c1ccc2[nH]c(-c3nncn3-c3c(Cl)ccc4[nH]ncc34)nc2c1 [Compound 209, 5-chloro-4-(3-(5-(trifluoromethyl)-1H-benzo[d]imidazol-2-yl)-4H-1,2,4-triazol-4-yl)-1H-indazole]"
16,≤ 100,"FC(F)(F)c1ccc2[nH]c(-c3nncn3-c3cnccc3C(F)(F)F)nc2c1 [Compound 225, 5-(Trifluoromethyl)-2-(4-(4-(trifluoromethyl)pyridin-3-yl)-4H-1,2,4-triazol-3-yl)-1H-benzo[d]imidazole]"
17,≤ 100,"OCCOc1ccc(OC(F)(F)F)c(-n2cnnc2-c2nc3cc(C(F)(F)F)ccc3[nH]2)c1 [Compound 230, 2-(4-(trifluoromethoxy)-3-(3-(5-(trifluoromethyl)-1H-benzo[d]imidazol-2-yl)-4H-1,2,4-triazol-4-yl)phenoxy)ethan-1-ol]"
18,≤ 100,"Cn1ncc(Cl)c1-c1ccnnc1-c1nc2cc(C(F)(F)F)ccc2[nH]1 [Compound 399, 2-(4-(4-chloro-1-methyl-1H-pyrazol-5-yl)pyridazin-3-yl)-5-(trifluoromethyl)-1H-benzo[d]imidazole]"
